Reference: article PMC10313671, “Accelerating the prediction and discovery of peptide hydrogels with human-in-the-loop” (Nature Communications, 2023)
Where a SMILES comes first, the peptide text is derived from it.

Legend:
[1] = Peptide hydrogel formation, vial-inverting method; assay type: physicochemical; set-up: key to EXP / GELATION: 0: no hydrogel; 1: hydrogel; conditions: for State: ultrasonication, standing 48 h; for State / GELATION / hydrogel formation (in words): vial-inverting method; for Concentration: concentration at which the state was recorded: lowest of 30, 60, 90, 120 mM that gave a gel, 120 mM for non-gelating peptides; for GELATION: 1 = hydrogel, 0 = no hydrogel; for hydrogel formation (in words): representative hydrogels pH between 7.0 to 7.5
Experimental: After validating the efficiency of APHC in predicting tetrapeptide hydrogels, we detailed the phase state of 165 synthesized tetrapeptides and the observed assembly behavior in an aqueous solution.
This work defines hydrogel formation as a self-supporting, non-flowing mixture of water and hydrogelator by the vial-inverting method. All purified tetrapeptides were dissolved in ultrapure water (to form a 30 mM solution initially), followed by the stepwise addition of 1 N NaOH solution to adjust the overall aqueous pH to 6.5–8.5. Meanwhile, a short-term ultrasonication treatment was applied after each pH adjustment to facilitate peptide solubilization and speed up peptide self-assembly. […] The mixture was allowed to stand in for another 48 h for complete hydrogelation. Upon the absence of gelation phenomenon during the aforementioned loops, we increased the peptide concentration (60 mM, 90 mM, and 120 mM were selected) and re-started such gelation operation loop to explore their gelation feasibility.

[2] = Transmission electron microscope (negative staining) of peptide assemblies; conditions: for Morphology: TEM, negative staining with uranyl acetate, 120 kV; for morphology by TEM (in words): aqueous solution or hydrogel, negative staining
Experimental: We used the negative staining technique to observe the morphologies formed by peptides. A micropipette was used to load 10 μL of sample solution to a carbon-coated copper grid, and we used a piece of filter paper to remove the excess solution. After rinsing the grid with the deionized water, we used uranyl acetate to stain the sample for 1 minute and then rinsed the grid with deionized water again.

[3] = 120 mM peptide (highest tested) in ultrapure water, pH 6.5-8.5 (1 N NaOH), precipitate, sol, suspension = no gel
[4] = 30 mM peptide in ultrapure water, pH adjusted to 6.5-8.5 with 1 N NaOH, concentration raised 30/60/90/120 mM until gelation
[5] = 60 mM peptide in ultrapure water, pH 6.5-8.5 (1 N NaOH), no gel at 30 mM

Compound | State [1, 3] | Concentration [1] [µM] | GELATION ([1]; peptide concentration 120 mM) | Morphology ([2]; line of the table gives 120 mM) | State [1, 4] | GELATION ([1]; peptide concentration 30 mM) | Morphology ([2]; line of the table gives 30 mM) | further results
CC(C)C[C@H](N)C(=O)N[C@H](C(=O)N1CCC[C@H]1C(=O)N[C@@H](Cc1ccccc1)C(=O)O)C(C)C [LVPF] (H-LVPF-OH) | sol | 120000 | 0 | aggregates | – | – | – | –
C[C@@H](O)[C@H](N)C(=O)N[C@H](C(=O)N[C@H](C(=O)N[C@H](C(=O)O)[C@@H](C)O)[C@@H](C)O)[C@@H](C)O [TTTT] (H-TTTT-OH) | suspension | 120000 | 0 | aggregates | – | – | – | –
CC[C@H](C)[C@H](NC(=O)[C@@H](NC(=O)[C@@H](N)Cc1c[nH]c2ccccc12)[C@@H](C)O)C(=O)N[C@@H](Cc1ccccc1)C(=O)O [WTIF] (H-WTIF-OH) | – | 30000 | – | – | gel | 1 | fibre | hydrogel formation (in words) [1]: hydrogels; morphology by TEM (in words) [2]: entangled nanofibers
CC[C@H](C)[C@H](NC(=O)[C@@H](NC(=O)[C@@H](N)CC(C)C)C(C)C)C(=O)N[C@@H](Cc1ccccc1)C(=O)O [LVIF] (H-LVIF-OH) | – | 60000 | – | – | – | – | – | State [1, 5]: gel; GELATION ([1]; peptide concentration 60 mM): 1; Morphology ([2]; line of the table gives 60 mM): fibre
NC(=O)C[C@H](NC(=O)[C@H](CC(N)=O)NC(=O)[C@H](CC(N)=O)NC(=O)[C@@H](N)CC(N)=O)C(=O)O [NNNN] (H-NNNN-OH) | sol | 120000 | 0 | aggregates | – | – | – | –
N[C@@H](CS)C(=O)N[C@@H](Cc1c[nH]c2ccccc12)C(=O)N[C@@H](Cc1c[nH]cn1)C(=O)N[C@@H](Cc1ccc(O)cc1)C(=O)O [CWHY] (H-CWHY-OH) | gel | 120000 | 1 | aggregates | – | – | – | –
CC[C@H](C)[C@H](NC(=O)[C@H](Cc1ccccc1)NC(=O)[C@H](Cc1c[nH]c2ccccc12)NC(=O)[C@@H](N)CC(C)C)C(=O)O [LWFI] (H-LWFI-OH) | sol | 120000 | 0 | aggregates | – | – | – | –
N[C@@H](Cc1c[nH]c2ccccc12)C(=O)N[C@@H](CCC(=O)O)C(=O)N[C@@H](Cc1ccccc1)C(=O)N[C@@H](Cc1ccccc1)C(=O)O [WEFF] (H-WEFF-OH) | – | 30000 | – | – | gel | 1 | fibre | hydrogel formation (in words) [1]: hydrogels; morphology by TEM (in words) [2]: entangled nanofibers
CC(C)C[C@H](NC(=O)[C@H](CC(C)C)NC(=O)[C@@H](N)CC(C)C)C(=O)N[C@@H](Cc1ccc(O)cc1)C(=O)O [LLLY] (H-LLLY-OH) | – | 30000 | – | – | gel | 1 | hybrid(sphere+fibre) | –
CC[C@H](C)[C@H](NC(=O)[C@H](CC(C)C)NC(=O)[C@@H](NC(=O)[C@@H](N)CC(C)C)[C@@H](C)O)C(=O)O [LTLI] (H-LTLI-OH) | – | 30000 | – | – | gel | 1 | sheet | –
CSCC[C@H](NC(=O)[C@H](Cc1c[nH]c2ccccc12)NC(=O)[C@@H](N)Cc1c[nH]c2ccccc12)C(=O)N[C@@H](Cc1ccccc1)C(=O)O [WWMF] (H-WWMF-OH) | gel | 120000 | 1 | rod | – | – | – | –
CC(C)C[C@H](NC(=O)CN)C(=O)N[C@@H](CC(C)C)C(=O)N[C@@H](Cc1ccc(O)cc1)C(=O)O [GLLY] (H-GLLY-OH) | suspension | 120000 | 0 | sheet | – | – | – | EXP ([1]; experimental gelation result of the synthesized peptide): 0
CC[C@H](C)[C@H](NC(=O)[C@H](CC(C)C)NC(=O)[C@@H](NC(=O)[C@@H](N)C(C)C)[C@@H](C)CC)C(=O)O [VILI] (H-VILI-OH) | – | 60000 | – | – | – | – | – | State [1, 5]: gel; GELATION ([1]; peptide concentration 60 mM): 1; Morphology ([2]; line of the table gives 60 mM): hybrid(sheet+fibre)
CSCC[C@H](NC(=O)[C@@H](N)CCCCN)C(=O)N[C@@H](CC(C)C)C(=O)N[C@@H](Cc1ccccc1)C(=O)O [KMLF] (H-KMLF-OH) | suspension | 120000 | 0 | aggregates | – | – | – | –
NCCCC[C@H](NC(=O)[C@@H](N)Cc1c[nH]c2ccccc12)C(=O)N[C@@H](Cc1ccccc1)C(=O)N[C@@H](Cc1ccccc1)C(=O)O [WKFF] (H-WKFF-OH) | – | 60000 | – | – | – | – | – | State [1, 5]: gel; GELATION ([1]; peptide concentration 60 mM): 1; hydrogel formation (in words) [1]: hydrogels; morphology by TEM (in words) [2]: entangled nanofibers
CC(C)[C@H](NC(=O)[C@@H](N)Cc1ccc(O)cc1)C(=O)N[C@@H](Cc1ccccc1)C(=O)N[C@@H](C)C(=O)O [YVFA] (H-YVFA-OH) | gel | 120000 | 1 | sphere | – | – | – | –
CC(C)C[C@H](NC(=O)[C@H](CC(C)C)NC(=O)[C@@H](N)CC(C)C)C(=O)N[C@@H](CO)C(=O)O [LLLS] (H-LLLS-OH) | – | 30000 | – | – | gel | 1 | sheet | –
CCCC | suspension | 120000 | 0 | sphere | – | – | – | –
C[C@@H](O)[C@H](N)C(=O)N[C@@H](CCCNC(=N)N)C(=O)N[C@@H](Cc1ccccc1)C(=O)N[C@@H](CO)C(=O)O [TRFS] (H-TRFS-OH) | suspension | 120000 | – | particle | – | – | – | morphology by TEM (in words) [2]: aggregates with different sizes
CC(C)[C@H](NC(=O)[C@H](Cc1ccc(O)cc1)NC(=O)[C@H](CO)NC(=O)[C@@H](N)Cc1ccccc1)C(=O)O [FSYV] (H-FSYV-OH) | – | 60000 | – | – | – | – | – | State [1, 5]: gel; GELATION ([1]; peptide concentration 60 mM): 1; Morphology ([2]; line of the table gives 60 mM): aggregates
CC(C)C[C@H](N)C(=O)N[C@H](C(=O)N[C@@H](Cc1c[nH]cn1)C(=O)N[C@@H](Cc1ccccc1)C(=O)O)C(C)C [LVHF] (H-LVHF-OH) | – | 30000 | – | – | gel | 1 | hybrid(sphere+fibre) | –
NCC(=O)N[C@@H](Cc1ccccc1)C(=O)N[C@@H](Cc1ccccc1)C(=O)N[C@@H](Cc1ccc(O)cc1)C(=O)O [GFFY] (H-GFFY-OH) | – | 30000 | – | – | gel | 1 | sheet | –
CC[C@H](C)[C@H](N)C(=O)N[C@H](C(=O)N[C@H](C(=O)N[C@H](C(=O)O)[C@@H](C)CC)[C@@H](C)CC)[C@@H](C)CC [IIII] (H-IIII-OH) | – | 30000 | – | – | gel | 1 | needle | –
CC[C@H](C)[C@H](NC(=O)[C@@H](N)CS)C(=O)N[C@@H](Cc1ccc(O)cc1)C(=O)N[C@@H](Cc1ccccc1)C(=O)O [CIYF] (H-CIYF-OH) | – | 60000 | – | – | – | – | – | State [1, 5]: gel; GELATION ([1]; peptide concentration 60 mM): 1; Morphology ([2]; line of the table gives 60 mM): fibre
CC[C@H](C)[C@H](N)C(=O)N[C@H](C(=O)N[C@H](C(=O)N[C@@H](CCCNC(=N)N)C(=O)O)[C@@H](C)CC)[C@@H](C)CC [IIIR] (H-IIIR-OH) | suspension | 120000 | 0 | aggregates | – | – | – | –
